IC50 data for 13 molecules are collected here from patent US9029531B2 (Agios Pharmaceuticals, Inc., priority 2012, dated 2015).

Molecules are shown by their SMILES.

In general, IC50 refers to the midpoint of a concentration-inhibition curve. A high value points to a need for much substance.

This assay addresses T1, glutaminase (GAC) (Homo sapiens, UniProt O94925).
T1 sequence (O94925 55-598 isoform O94925-3 limits assumed): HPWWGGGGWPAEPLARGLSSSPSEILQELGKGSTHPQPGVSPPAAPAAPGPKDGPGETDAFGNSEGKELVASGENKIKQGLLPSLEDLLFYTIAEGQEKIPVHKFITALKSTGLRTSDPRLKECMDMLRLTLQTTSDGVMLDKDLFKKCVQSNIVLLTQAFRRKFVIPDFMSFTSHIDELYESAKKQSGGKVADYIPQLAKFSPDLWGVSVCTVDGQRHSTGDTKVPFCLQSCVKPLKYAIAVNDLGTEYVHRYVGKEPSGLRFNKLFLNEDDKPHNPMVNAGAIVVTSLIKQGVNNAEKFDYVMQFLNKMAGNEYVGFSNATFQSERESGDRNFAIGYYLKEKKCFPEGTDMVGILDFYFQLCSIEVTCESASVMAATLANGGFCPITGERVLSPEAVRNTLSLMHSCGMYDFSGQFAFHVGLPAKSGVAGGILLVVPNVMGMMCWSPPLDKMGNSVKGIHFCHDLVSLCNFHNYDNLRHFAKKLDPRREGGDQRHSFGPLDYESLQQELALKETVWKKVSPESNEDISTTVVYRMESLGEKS
As to the kind of experiment: Glutaminase coupled endpoint enzymatic assay (Example A). The format is biochemical. To be noted: inhibition of glutaminase; assay of Example A or Example B. The text has this: In certain embodiments, exemplary compounds of Formula I include the compounds described in Table 1 and in the Examples. A compound described herein may be tested for its ability to inhibit glutaminase, e.g., by an assay as described in the Examples. For simplicity, the inhibition activity of these compounds is represented as an IC50 tested in an assay of Example A or Example B in Table 1. […] “N/A” refers to compounds wherein the IC50 is unavailable.
In this example, the enzymatic activity of glutaminase is measured through a coupled endpoint assay. Glutamine and phosphate are supplied to GAC at a concentration equal to Km and AC50, respectively, and GAC concentration is adjusted to give a linear reaction for 60 minutes. The glutamate produced is converted to 2-OG by a kinetic excess of glutamate dehydrogenase. This second step is configured for 2×Km for NAD, since excess NAD is inhibitory. However, a kinetic excess of the third coupling enzyme, diaphorase, recycles NAD from NADH to keep the NAD concentration constant during the timecourse of the assay. Diaphorase, also supplied in kinetic excess, oxidizes NADH produced by GDH back to NAD with the concomitant reduction of rezasurin to the highly fluorescent resorufin. Resorufin in measured after the assay is stopped with SDS by Ex544/Em590. A reduction in the signal indicates inhibition of some component of the coupled enzyme system. Prospective hits are counterscreened against GDH/diaphorase alone to remove hits to the coupling enzyme system in a second assay.
2. Buffers • 2× Buffer (300 mM NaCl, 100 mM HEPES pH 8.5, 0.1% BSA, 0.5 mM EDTA, 100 mM sodium phosphate pH 8.5) • 5× Substrate Mix (1× Buffer final concentration, with 13 mM glutamine, 100 μM resazurin, 50 μg/ml diaphorase) • 1.2× Enzyme Mix (1× Buffer final concentration, with 0.875 μg/ml GAC, 1.56 mM NAD, 6.25 units/ml GDH) • Stop Mix (6% SDS in ddH2O) Reaction Procedure • 1. Add 1 μl compound in 100% DMSO • 2. Add 40 μl of Enzyme Mix and incubate for 60 minute at room temperature • 3. Add 10 μl of Substrate Mix to start reaction • 4. Stop reaction with 25 μl of 6% SDS and read Ex544 Em 590
Molecule `O=C(Cc1ccccc1)Nc1nnc(C[C@H]2C[C@@H]2Cc2nnc(NC(=O)Cc3ccccc3)s2)s1` (racemic) [Compound 1, N,N′-(5,5′-(trans-cyclopropane-1,2-diylbis(methylene))bis(1,3,4-thiadiazole-5,2-diyl))bis(2-phenylacetamide)] showed an IC50 of 100 to 500 nM.
The molecule `O=C(Cc1ccccn1)Nc1nnc(C[C@H]2C[C@@H]2Cc2nnc(NC(=O)Cc3ccccn3)s2)s1` (racemic) [Compound 3, N,N′-(5,5′-(trans-cyclopropane-1,2-diylbis(methylene))bis(1,3,4-thiadiazole-5,2-diyl))bis(2-(pyridin-2-yl)acetamide)] yielded an IC50 of 500 to 1000 nM.
As for `O=C(Cc1cccnc1)Nc1nnc(C[C@H]2C[C@@H]2Cc2nnc(NC(=O)Cc3cccnc3)s2)s1` (racemic) [Compound 5, N,N′-(5,5′-(trans-cyclopropane-1,2-diylbis(methylene))bis(1,3,4-thiadiazole-5,2-diyl))bis(2-(pyridin-3-yl)acetamide)], the figure is 100 to 500 nM; as for `O=C(Cc1cccs1)Nc1nnc(C[C@H]2C[C@@H]2Cc2nnc(NC(=O)Cc3cccs3)s2)s1` (racemic) [Compound 6, N,N′-(5,5′-(trans-cyclopropane-1,2-diylbis(methylene))bis(1,3,4-thiadiazole-5,2-diyl))bis(2-(thiophen-2-yl)acetamide)], 100 to 500 nM.
The molecule `COc1cccnc1CC(=O)Nc1nnc([C@H]2CCC[C@H](c3nnc(NC(=O)Cc4ncccc4OC)s3)C2)s1` (racemic) [Compound 116] yielded an IC50 of under 100 nM.
As for `COc1ccc(CC(=O)Nc2nnc([C@@H]3CCC[C@@H](c4nnc(NC(=O)Cc5ccc(OC)cc5)s4)C3)s2)cc1` (stereo in doubt) [Compound 52, N,N′-(5,5′-((1S,3S)-cyclohexane-1,3-diyl)bis(1,3,4-thiadiazole-5,2-diyl))bis(2-(4-methoxyphenyl)acetamide)], the IC50 is under 100 nM.
In turn, `O=C(Cc1ccccn1)Nc1nnc(CC2CCC(Cc3nnc(NC(=O)Cc4ccccn4)s3)C2)s1` (stereo not shown) [Compound 4, N,N′-(5,5′-(cyclopentane-1,3-diylbis(methylene))bis(1,3,4-thiadiazole-5,2-diyl))bis(2-(pyridin-2-yl)acetamide)] came in with an IC50 of 2000 to 10000 nM.
`O=C(Cc1ccccn1)Nc1nnc(CC2CC(Cc3nnc(NC(=O)Cc4ccccn4)s3)C2)s1` (stereo not shown) [Compound 7, N,N′-(5,5′-(cyclobutane-1,3-diylbis(methylene))bis(1,3,4-thiadiazole-5,2-diyl))bis(2-(pyridin-2-yl)acetamide)] returned an IC50 of 2000 to 10000 nM.
`O=C(Cc1ccccc1)Nc1nnc(CC2CC(Cc3nnc(NC(=O)Cc4ccccc4)s3)C2)s1` (stereo not shown) [Compound 8, N,N′-(5,5′-(cyclobutane-1,3-diylbis(methylene))bis(1,3,4-thiadiazole-5,2-diyl))bis(2-phenylacetamide)]: the IC50 was in the range of 100 to 500 nM.
Under `O=C(Cc1ccccc1)Nc1nnc([C@H]2CCC[C@H](c3nnc(NC(=O)Cc4ccccc4)s3)C2)s1` [Compound 9, N,N′-(5,5′-((1S,3S)-cyclohexane-1,3-diyl)bis(1,3,4-thiadiazole-5,2-diyl))bis(2-phenylacetamide)] stands under 100 nM; under `O=C(Cc1ccccc1)Nc1nnc([C@@H]2CCC[C@H](c3nnc(NC(=O)Cc4ccccc4)s3)C2)s1` [Compound 10, N,N′-(5,5′-((1R,3S)-cyclohexane-1,3-diyl)bis(1,3,4-thiadiazole-5,2-diyl))bis(2-phenylacetamide)], 1000 to 2000 nM.
Regarding `O=C(Cc1ccccc1)Nc1nnc([C@@H]2CCC[C@@H](c3nnc(NC(=O)Cc4ccccc4)s3)C2)s1` [Compound 11, N,N′-(5,5′-((1R,3R)-cyclohexane-1,3-diyl)bis(1,3,4-thiadiazole-5,2-diyl))bis(2-phenylacetamide)], the IC50 was under 100 nM.
Regarding `CC(=O)Nc1nnc([C@H]2CCC[C@H](c3nnc(NC(C)=O)s3)C2)s1` [Compound 12, N,N′-(5,5′-((1S,3S)-cyclohexane-1,3-diyl)bis(1,3,4-thiadiazole-5,2-diyl))diacetamide], the IC50 was in the range of 500 to 1000 nM.
